Source: publication PMC4635503, “High-affinity nitrate/nitrite transporters NrtA and NrtB of Aspergillus nidulans exhibit high specificity and different inhibitor sensitivity” (Microbiology, 2015)
In brackets after ≈: the same amount, converted by molar mass. Several values for one entry are separate records, joined by “and”; a condition that tells them apart may be missing. Equal entries are not always repeated. Where two headings read alike, the source gives them in different places.

Experiments:
NrtB [1] = assay type: cell-based, Aspergillus nidulans; details: for Nitrate uptake ± SE: nrtA747 (NrtB); for nature of inhibition of nitrate transport (Lineweaver–Burk): NrtB (expressed in nrtA1); for Ki: inhibitor concentration reducing net nitrate uptake rate by 50 % of control
Procedure: (§1) These were performed on cultures grown in liquid AMM with 5 mM urea as nitrogen source for a total of 6.5 h at 37 °C ([Brownlee & Arst, 1983]). Urea was used as it (i) is a neutral nitrogen source, neither inducing nor repressing nitrate transport, (ii) has been used routinely in the past and (iii) permitted direct comparison with previously published results. […] Transporter activity was induced by the addition of 10 mM sodium nitrate 100 min prior to assay as described previously ([Brownlee & Arst, 1983]). Assays were carried out in triplicate, generally at pH 6.5, on three independently grown cultures for each strain and expressed as nmol nitrate removed from the medium min^ − 1 (mg dried mycelium)^ − 1, as discussed before ([Brownlee & Arst, 1983]; [Kinghorn et al., 2005]; [Unkles et al., 2012]). Both carbonic acid and bicarbonate chemical species can occur at pH 6.5. Thus potential inhibition of nitrate transport by carbonic acid/bicarbonate was tested at pH 6.5 and bicarbonate at pH 8.3.
(§2) To effectively assess net uptake, it is necessary that any export, i.e. simultaneous transport in the reverse direction, is minimal.
(§3) Values of K m and V max were calculated by linear regression of Lineweaver–Burk analyses (1/v against 1/s, where v is net uptake and s is substrate concentration). The kinetic values of nitrate transport by the WT and mutants were compared with those from a previous report ([Unkles et al., 2001]). […] Therefore the kinetic values in the absence of inhibitors from the present study were used as control values. Each K i value was determined by regression of the rates of net nitrate uptake transport versus the range of concentrations of a particular inhibitor: linear or nonlinear regression was used, depending on which type provided the highest r ^2 value. Calculated from each regression was the concentration of the inhibitor that reduced net nitrate uptake rate by 50 % of the control (without inhibitor) rate, which was assessed as the K i value. Lineweaver–Burk analyses were carried out to determine the nature of the inhibition of nitrate transport for each inhibitor.

[2] = system: A. nidulans WT and mutant strains; assay type: cell-based, Aspergillus nidulans; details: for growth stunting on solid AMM: up to 100 mM, 1 mM nitrate (or proline) as sole nitrogen source, data not shown
Procedure: (§4) Fungal growth tests were carried out in standard Petri dishes containing defined Aspergillus minimal medium (AMM) agar ([Cove, 1976]), with sodium nitrate or proline as the sole nitrogen source, at 1 or 10 mM concentration. Strains were tested for inhibition by bicarbonate, formate, oxalate, chlorite, sulphite (all purchased as the sodium salt), chlorate (potassium salt), malonate (acid form) or caesium (chloride salt). Stock aqueous solutions of inhibitors were adjusted to pH 6.5 and prepared immediately before use. It should be noted that at pH 6.5, bicarbonate is in approximately 50 % equilibrium with carbonic acid. […] Cultures were incubated routinely at 37 °C for 48 h, and the growth response was scored.
(§5) Each treatment was carried out in five replicates. […] As caesium was utilized as a chloride salt, a control for potential inhibition by chloride was assessed, by growth on 100 mM sodium chloride (Fig. 4).
Unlike chlorate, commercial chemical supplies of chlorite typically contain a relatively high percentage (20 %) of contaminants. […] The pH of this solution was adjusted to 6.5 and aliquots incorporated into solid AMM (with nitrate or proline as the nitrogen source) at final concentrations equivalent to those that would be present in agar medium containing 10 mM chlorite (i.e. 1.56 mM sodium chloride, 0.28 mM sodium chlorate, 0.68 mM sodium hydroxide and 0.17 mM sodium carbonate).

[3] = system: nitrate transport by NrtA and NrtB; experiment: Net nitrate transport inhibition assays, strain not specified; assay type: cell-based, Aspergillus nidulans; details: net nitrate transport inhibition assays (Tables 3 and 4)
Procedure: as §1, §2

NrtA [4] = biological target: T1, NrtA (Emericella nidulans, UniProt P22152); experiment: cell-based; parameters: mutant nrtB110 (expressing a functional NrtA); endogenous in cells; host or cells: Aspergillus nidulans mycelium, knockout strain nrtB110, nitrate-induced; species or system Aspergillus nidulans; details: for nature of inhibition of nitrate transport (Lineweaver–Burk): NrtA (expressed in nrtB110)
Procedure: as §1, §2, §3

[5] = system: A. nidulans WT strain (NrtA, NrtB); experiment: MIC growth test on solid AMM, WT strain; assay type: cell-based, Aspergillus nidulans
Procedure: as §4, §5

[6] = system: A. nidulans double mutant tbl110 (nrtA747 nrtB110, neither transporter); experiment: microbe, parasite or virus in culture; assay type: cell-based, Aspergillus nidulans; details: T110 (neither transporter)
Procedure: as §4, §5

[7] = system: A. nidulans mutant nrtA1 (functional NrtB); experiment: microbe, parasite or virus in culture; assay type: cell-based, Aspergillus nidulans
Procedure: as §4, §5

[8] = system: A. nidulans mutant nrtB110 (functional NrtA); experiment: microbe, parasite or virus in culture; assay type: cell-based, Aspergillus nidulans
Procedure: as §4, §5

NrtA, NrtB (WT strain) = experiment: Net nitrate uptake assay and kinetics, WT strain; assay type: cell-based, Aspergillus nidulans; details: mean ± SE; for Ki: WT (NrtA, NrtB), inhibitor concentration reducing net nitrate uptake rate by 50 % of control
Procedure: as §1, §2, §3

NrtA [9] = biological target: T1, NrtA; details: cited from earlier work
NrtB [10] = details: cited from earlier work
A. nidulans WT strain = details: ref Wang et al., 2007; cited from earlier work
[11] = Aspergillus nidulans, 1 mM proline as sole nitrogen source
[12] = Aspergillus nidulans, 10 mM nitrate as sole nitrogen source
[13] = Aspergillus nidulans, 10 mM proline as sole nitrogen source
[14] = nrtB110 (NrtA), 1 mM nitrate as sole nitrogen source
[15] = nrtB110 (NrtA), 1 mM proline as sole nitrogen source
[16] = nrtB110 (NrtA), 10 mM nitrate as sole nitrogen source
[17] = nrtB110 (NrtA), 10 mM proline as sole nitrogen source
[18] = pH 6.5, in presence of the anion, control without anion 2.9 ± 0.1
[19] = nrtB110 (NrtA), pH 6.5, in presence of the anion, control without anion 10.6 ± 1.4
[20] = 1 mM proline as sole nitrogen source
[21] = 10 mM nitrate as sole nitrogen source
[22] = 10 mM proline as sole nitrogen source
[23] = nitrate transport, WT, no inhibitor
[24] = nitrate transport, nrtA1 (NrtB), no inhibitor, mean ± SE
[25] = nitrate transport, nrtB110 (NrtA), no inhibitor, mean ± SE

T1 sequence (P22152 whole entry): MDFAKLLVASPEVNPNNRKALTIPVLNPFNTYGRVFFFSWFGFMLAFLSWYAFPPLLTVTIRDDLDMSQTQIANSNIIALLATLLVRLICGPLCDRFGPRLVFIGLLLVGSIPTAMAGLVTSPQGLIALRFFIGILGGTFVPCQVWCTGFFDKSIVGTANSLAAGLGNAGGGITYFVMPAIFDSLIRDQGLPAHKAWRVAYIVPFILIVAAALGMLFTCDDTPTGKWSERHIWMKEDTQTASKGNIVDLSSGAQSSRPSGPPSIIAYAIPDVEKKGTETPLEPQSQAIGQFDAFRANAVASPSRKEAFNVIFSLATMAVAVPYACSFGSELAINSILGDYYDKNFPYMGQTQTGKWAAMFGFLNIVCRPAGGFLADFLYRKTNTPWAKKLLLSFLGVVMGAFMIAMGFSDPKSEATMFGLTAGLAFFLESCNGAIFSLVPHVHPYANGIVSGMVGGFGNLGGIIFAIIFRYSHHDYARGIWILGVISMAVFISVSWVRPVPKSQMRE

## O=C(O)O [Bicarbonate, bicarbonate]
NrtB [1]; pH 8.3, in presence of the anion, control without anion 1.9 ± 0.7
  Nitrate uptake ± SE: 1.9 ± 0.3 nmol NO3 min^− 1 mg^− 1
[2]
  growth stunting on solid AMM: no convincing phenotypic evidence of growth stunting
[3]
  inhibition of nitrate transport / uptake: did not inhibit growth or nitrate uptake
NrtA [4]; nrtB110 (NrtA), pH 8.3, in presence of the anion, control without anion 0.7 ± 0.4
  Nitrate uptake ± SE: 0.5 ± 0.7 nmol NO3 min^− 1 mg^− 1

## [Cs+] [Caesium, caesium]
[5]; Aspergillus nidulans, 1 mM nitrate as sole nitrogen source, solid AMM, 37 °C
  MIC: 100 mM
[5]; [11]
  MIC: 80 mM
[5]; [12]
  MIC: > 100 mM
[5]; [13]
  MIC: 60 mM
[6]; [11]
  MIC: 100 mM
[6]; [13]
  MIC: > 100 mM
[7]; Aspergillus nidulans, 1 mM nitrate as sole nitrogen source
  MIC: 40 mM
[7]; [11]
  MIC: 80 mM
[7]; [12]
  MIC: 30 mM
[7]; [13]
  MIC: 60 mM
[8]; Aspergillus nidulans
  MIC: > 100 mM
[8]; [14]
  MIC: >100 mM
[8]; [15]
  MIC: >100 mM
[8]; [16]
  MIC: >100 mM
[8]; [17]
  MIC: >100 mM
NrtA, NrtB (WT strain)
  Ki: 45.1 ± 6.1 mM
NrtA, NrtB (WT strain); listed as caesium
  Ki: 45 mM
NrtB [1]
  nature of inhibition of nitrate transport (Lineweaver–Burk): uncompetitive
NrtB [1]; listed as caesium
  nature of inhibition of nitrate transport (Lineweaver–Burk): uncompetitive inhibition
NrtB [1]; nrtA1 (NrtB), mean ± SE
  Ki: 2.6 ± 0.02 mM
NrtB [1]; nrtA1 (NrtB), mean ± SE, listed as caesium
  Ki: ~3 mM
NrtA [4]; K i, nrtB110 (NrtA), inhibitor concentration reducing net nitrate uptake rate by 50 % of control, mean ± SE
  Ki: 55 mM and 54.8 mM
NrtA [4]
  nature of inhibition of nitrate transport (Lineweaver–Burk): non-competitive inhibitor
NrtA [4]; listed as caesium
  nature of inhibition of nitrate transport (Lineweaver–Burk): non-competitive inhibition

## O=CO [Formate]
NrtB [1]; [18]
  Nitrate uptake ± SE: 2.7 ± 0.1 nmol NO3 min^− 1 mg^− 1
[2]
  growth stunting on solid AMM: no convincing phenotypic evidence of growth stunting
[3]
  inhibition of nitrate transport / uptake: did not inhibit growth or nitrate uptake
NrtA [4]; [19]
  Nitrate uptake ± SE: 8.1 ± 0.4 nmol NO3 min^− 1 mg^− 1

## O=C(O)CC(=O)O [Malonate, malonate]
NrtB [1]; [18]
  Nitrate uptake ± SE: 2.7 ± 0.2 nmol NO3 min^− 1 mg^− 1
[2]
  growth stunting on solid AMM: no convincing phenotypic evidence of growth stunting
[3]
  inhibition of nitrate transport / uptake: did not inhibit growth or nitrate uptake

## O=C(O)C(=O)O [Oxalate]
NrtB [1]; [18]
  Nitrate uptake ± SE: 2.4 ± 0.1 nmol NO3 min^− 1 mg^− 1
[2]
  growth stunting on solid AMM: no convincing phenotypic evidence of growth stunting
[3]
  inhibition of nitrate transport / uptake: did not inhibit growth or nitrate uptake
NrtA [4]; [19]
  Nitrate uptake ± SE: 9.7 ± 0.4 nmol NO3 min^− 1 mg^− 1

## O=S(O)O [Sulphite, sulphite]
[5]; 1 mM nitrate as sole nitrogen source, solid AMM, 37 °C
  MIC: 15 mM (≈ 1230 µg/mL)
[5]; [20]
  MIC: 15 mM (≈ 1230 µg/mL)
[5]; [21]
  MIC: 15 mM (≈ 1230 µg/mL)
[5]; [22]
  MIC: >25 mM
[6]; [20]
  MIC: 15 mM (≈ 1230 µg/mL)
[6]; [22]
  MIC: >25 mM
[7]; 1 mM nitrate as sole nitrogen source
  MIC: 15 mM (≈ 1230 µg/mL)
[7]; [20]
  MIC: 15 mM (≈ 1230 µg/mL)
[7]; [21]
  MIC: 15 mM (≈ 1230 µg/mL)
[7]; [22]
  MIC: >25 mM
[8]; [14]
  MIC: 15 mM (≈ 1230 µg/mL)
[8]; [15]
  MIC: 15 mM (≈ 1230 µg/mL)
[8]; [16]
  MIC: 15 mM (≈ 1230 µg/mL)
[8]; [17]
  MIC: >25 mM
[2]; media with 10 mM nitrate
  concentration at which growth ceased: 15 mM
[2]; media with 10 mM proline
  concentration at which growth ceased: > 25 mM
[2]; media with either 1 mM nitrate or proline
  concentration at which growth ceased: 15 mM

## O=[N+]([O-])O [nitrate]
NrtA, NrtB (WT strain); [23]
  K m: 0.0571 ± 0.0026 mM
  V max: 14.2 ± 0.8
NrtB [1]; [24]
  K m: 0.0114 ± 0.0024 mM
  V max: 3.6 ± 0.2
NrtA [9]; ref Unkles et al., 2001
  K m for nitrate: 0.096 mM
NrtB [10]; ref Unkles et al., 2001
  K m for nitrate: 0.011 mM
A. nidulans WT strain
  rate of nitrate efflux as % of influx: 8%
NrtA [4]; [25]
  K m: 0.041 ± 0.0048 mM
  V max: 9.1 ± 0.8

## O=NO [nitrite]
NrtA [9]; ref Wang et al., 2008
  K m for nitrite: 0.016 mM
NrtB [10]; ref Wang et al., 2008
  K m for nitrite: 0.011 mM

## [Cl-].[Na+] [sodium chloride]
[2]; 100 mM sodium chloride, control for chloride
  effect on growth: no effect on growth

## Carbonic acid/bicarbonate
NrtB [1]; [18]
  Nitrate uptake ± SE: 2.7 ± 0.1 nmol NO3 min^− 1 mg^− 1
[2]
  growth stunting on solid AMM: no convincing phenotypic evidence of growth stunting
NrtA [4]; [19]
  Nitrate uptake ± SE: 11.1 ± 0.4 nmol NO3 min^− 1 mg^− 1
